Results from ChEMBL document CHEMBL2401683, “Discovery of novel andrographolide derivatives as cytotoxic agents” (2013).
The source made the active and inactive calls. No cut-off for these calls is given here.

How the values were obtained:
KB = assay: Growth inhibition of human KB cells after 72 hrs by SRB assay; type: functional
[1] = Growth inhibition of human KBVIN cells after 72 hrs by SRB assay; type: functional
DU-145 = assay: Growth inhibition of human DU145 cells after 72 hrs by SRB assay; type: functional; details: DU-145, 72 h
A549 = assay: Growth inhibition of human A549 cells after 72 hrs by SRB assay; type: functional; details: A549, 72 h
PC-3 [2] = assay: Induction of metaphase cell accumulation in human PC3 cells at 30 to 60 uM after 24 hrs by DAPI staining-based confocal microscopic analysis; type: functional
PC-3 [3] = assay: Disruption of microtubule dynamics in human PC3 cells at 30 to 60 uM after 24 hrs by DAPI staining-based confocal microscopic analysis; type: functional, cell-based

## C=C1CC[C@@H]2[C@](C)(COC(=O)c3cccnc3)[C@H](OC(=O)c3cccnc3)CC[C@@]2(C)[C@@H]1/C=C/C1=CCOC1=O
KB
  GI50: > 30 µM
[1]
  GI50: > 30 µM
DU-145
  GI50: > 30 µM
A549
  GI50: > 30 µM

## C=C1CC[C@@H]2[C@]3(C)CO[C@@H](c4ccco4)O[C@@H]3CC[C@@]2(C)[C@@H]1/C=C/C1=CCOC1=O
KB
  GI50: 36.4 µM
[1]
  GI50: 32.7 µM
DU-145
  GI50: 32.9 µM
A549
  GI50: 34 µM

## C=C1CC[C@@H]2[C@]3(C)CO[C@@H](c4ccc(N(C)C)cc4)O[C@@H]3CC[C@@]2(C)[C@@H]1/C=C/C1=CCOC1=O
KB
  GI50: > 30 µM
[1]
  GI50: > 30 µM
DU-145
  GI50: > 30 µM
A549
  GI50: 33 µM

## C=C1CC[C@@H]2[C@](C)(COC(=O)CN(C)C)[C@H](OC(=O)CN(C)C)CC[C@@]2(C)[C@@H]1/C=C/C1=CCOC1=O
KB
  GI50: > 30 µM
[1]
  GI50: > 30 µM
DU-145
  GI50: > 30 µM
A549
  GI50: > 30 µM

## C=C1CC[C@@H]2[C@]3(C)CO[C@@H](c4ccc(OC)cc4)O[C@@H]3CC[C@@]2(C)[C@@H]1/C=C/C1=CCOC1=O
KB
  GI50: 32.9 µM
[1]
  GI50: > 30 µM
DU-145
  GI50: 32.1 µM
A549
  GI50: 26.9 µM

## C=C1CC[C@@H]2[C@](C)(COC(=O)CCN3CCOCC3)[C@H](OC(=O)CCN3CCOCC3)CC[C@@]2(C)[C@@H]1/C=C/C1=CCOC1=O
KB
  GI50: > 30 µM
[1]
  GI50: > 30 µM
DU-145
  GI50: > 30 µM
A549
  GI50: > 30 µM

## C=C1CC[C@@H]2[C@]3(C)CO[C@@H](c4ccc(C(F)(F)F)cc4)O[C@@H]3CC[C@@]2(C)[C@@H]1/C=C/C1=CCOC1=O
KB
  GI50: 23.4 µM
[1]
  GI50: 18.3 µM
DU-145
  GI50: 17.2 µM
A549
  GI50: 16.9 µM

## C=C1CC[C@@H]2[C@](C)(COC(=O)C3CCCN3C(=O)OC(C)(C)C)[C@H](O)CC[C@@]2(C)[C@@H]1/C=C/C1=CCOC1=O (stereo not given in full)
KB
  GI50: 20.1 µM
[1]
  GI50: 17.9 µM
DU-145
  GI50: 18.8 µM
A549
  GI50: 18.8 µM

## C=C1CC[C@@H]2[C@](C)(COC(=O)CCCCC3CCSS3)[C@H](O)CC[C@@]2(C)[C@@H]1/C=C/C1=CCOC1=O (stereo not given in full)
KB
  GI50: > 30 µM
[1]
  GI50: > 30 µM
DU-145
  GI50: > 30 µM
A549
  GI50: > 30 µM

## C=C1CC[C@@H]2[C@](C)(COC(=O)CCN3CCOCC3)[C@H](O)CC[C@@]2(C)[C@@H]1/C=C/C1=CCOC1=O
KB
  GI50: > 30 µM
[1]
  GI50: 30 µM
DU-145
  GI50: 30.3 µM
A549
  GI50: > 30 µM

## C=C1CC[C@@H]2[C@](C)(COC(=O)CCN(C)C)[C@H](OC(=O)CCN(C)C)CC[C@@]2(C)[C@@H]1/C=C/C1=CCOC1=O
KB
  GI50: > 30 µM
[1]
  GI50: 31.7 µM
DU-145
  GI50: 25.3 µM
A549
  GI50: 32 µM

## C=C1CC[C@@H]2[C@](C)(CO)[C@H](O)CC[C@@]2(C)[C@@H]1C/C=C1/C(=O)OC[C@H]1O [ANDROGRAPHOLIDE]
KB
  GI50: 13.2 µM
[1]
  GI50: 13.8 µM
DU-145
  GI50: 16 µM
A549
  GI50: 13.4 µM
PC-3 [2]
  Activity: Active

## C=C1CC[C@@H]2[C@](C)(COC(=O)C3CCCN3C(=O)OC(C)(C)C)[C@H](OC(=O)C3CCCN3C(=O)OC(C)(C)C)CC[C@@]2(C)[C@@H]1/C=C/C1=CCOC1=O (stereo not given in full)
KB
  GI50: 12.5 µM
[1]
  GI50: 11.1 µM
DU-145
  GI50: 11.1 µM
A549
  GI50: 10.2 µM

## C=C1CC[C@@H]2[C@]3(C)CO[C@@H](c4ccc([N+](=O)[O-])cc4)O[C@@H]3CC[C@@]2(C)[C@@H]1/C=C/C1=CCOC1=O
KB
  GI50: > 30 µM
[1]
  GI50: > 30 µM
DU-145
  GI50: > 30 µM
A549
  GI50: 30.8 µM

## C=C1CC[C@@H]2[C@](C)(COC(=O)c3cnccn3)[C@H](OC(=O)c3cnccn3)CC[C@@]2(C)[C@@H]1/C=C/C1=CCOC1=O
KB
  GI50: 8.24 µM
[1]
  GI50: 9.19 µM
DU-145
  GI50: 8.63 µM
A549
  GI50: 4.87 µM

## C=C1CC[C@@H]2[C@](C)(COC(=O)C3CCN(C)CC3)[C@H](OC(=O)C3CCN(C)CC3)CC[C@@]2(C)[C@@H]1/C=C/C1=CCOC1=O
PC-3 [3]
  Activity: Active
KB
  GI50: 2.55 µM
[1]
  GI50: 3 µM
DU-145
  GI50: 2.27 µM
A549
  GI50: 1.46 µM
PC-3 [2]
  Activity: inactive

## C=C1CC[C@@H]2[C@]3(C)CO[C@@H](c4ccc(O)cc4)O[C@@H]3CC[C@@]2(C)[C@@H]1/C=C/C1=CCOC1=O
KB
  GI50: 23.7 µM
[1]
  GI50: 22.6 µM
DU-145
  GI50: 19.1 µM
A549
  GI50: 22.8 µM

## C=C1CC[C@@H]2[C@](C)(COC(=O)CCCCC3CCSS3)[C@H](OC(=O)CCCCC3CCSS3)CC[C@@]2(C)[C@@H]1/C=C/C1=CCOC1=O (stereo not given in full)
KB
  GI50: 11.7 µM
[1]
  GI50: 12.9 µM
DU-145
  GI50: 11.8 µM
A549
  GI50: 10.2 µM
